Data taken from PMC8252718, “carba Nicotinamide Adenine Dinucleotide Phosphate: Robust Cofactor for Redox Biocatalysis” (Angewandte Chemie (International Ed. in English), 2021).

What was measured:
Assay in all cases: activity assay
Assay type in all cases: biochemical
CHMO = biological target: T1, CHMO (Acinetobacter johnsonii, UniProt P12015)
T1 construct: gene chnB; details only in supplement

AspRedAm = biological target: T2, AspRedAm (Aspergillus oryzae, UniProt Q2TW47); conditions: 100 mM Tris-HCl pH 8.2, 5 mM hexanal, 10 mM amine, 1 mM cofactor, 30 °C
T2 construct: gene AO090010000708; details only in supplement
T2 sequence (Q2TW47 1-295): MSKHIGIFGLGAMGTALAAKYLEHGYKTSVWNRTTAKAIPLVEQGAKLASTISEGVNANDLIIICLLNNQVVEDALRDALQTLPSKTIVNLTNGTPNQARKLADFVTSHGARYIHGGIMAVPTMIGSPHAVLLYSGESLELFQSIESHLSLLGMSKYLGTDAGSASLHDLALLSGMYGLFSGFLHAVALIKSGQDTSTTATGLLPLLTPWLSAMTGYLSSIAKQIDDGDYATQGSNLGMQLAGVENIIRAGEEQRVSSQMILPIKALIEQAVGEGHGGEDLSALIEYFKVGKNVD

TsER = biological target: T3, TsER (Thermus scotoductus, UniProt B0JDW3)
T3 construct: gene chrR; details only in supplement

T1 sequence (P12015 whole entry): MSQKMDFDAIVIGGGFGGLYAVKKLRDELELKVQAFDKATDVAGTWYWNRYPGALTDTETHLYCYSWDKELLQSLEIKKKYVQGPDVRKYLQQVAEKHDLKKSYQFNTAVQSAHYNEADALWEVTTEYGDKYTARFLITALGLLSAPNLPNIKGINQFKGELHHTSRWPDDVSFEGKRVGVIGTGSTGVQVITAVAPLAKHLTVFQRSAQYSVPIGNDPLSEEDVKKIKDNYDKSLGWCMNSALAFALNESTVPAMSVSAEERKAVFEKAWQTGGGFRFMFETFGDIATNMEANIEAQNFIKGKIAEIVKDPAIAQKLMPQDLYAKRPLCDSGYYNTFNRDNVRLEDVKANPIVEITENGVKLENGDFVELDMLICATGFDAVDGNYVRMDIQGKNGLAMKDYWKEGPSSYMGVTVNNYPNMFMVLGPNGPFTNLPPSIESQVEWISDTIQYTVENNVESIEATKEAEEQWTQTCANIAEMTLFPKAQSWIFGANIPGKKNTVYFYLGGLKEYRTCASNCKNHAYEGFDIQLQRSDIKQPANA

## NC(=O)C1=CN([C@@H]2C[C@H](COP(=O)(O)OP(=O)(O)OC[C@H]3O[C@@H](n4cnc5c(N)ncnc54)[C@H](OP(=O)(O)O)[C@@H]3O)[C@@H](O)[C@H]2O)C=CC1 [carba-NADPH]
CHMO
  activity assay: two Baeyer‐Villiger‐monoxygenases (CHMO and HAPMO)
AspRedAm
  activity assay: Both gave comparable results with the natural and carba cofactor
TsER
  activity assay: enoate reductase (TsER from Thermus scotoductus)
